# Reference: PubChem BioAssay (NCI)
#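 Test compounds were applied to cells in 96-well plates for 48 hours at 5 doses. The concentration for 50% growth inhibition is given as GI50. At the TGI there is no net growth.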
# Key:
# Experiment in all cases: growth of human tumour cells (NCI), 48 h
# OVCAR-4 ovarian = test system: OVCAR-4 ovarian
# CCRF-CEM leukemia = test system: CCRF-CEM leukemia
# MCF7 breast = test system: MCF7 breast
# HOP-92 NSCLC = test system: HOP-92 NSCLC
# OVCAR-3 ovarian = test system: OVCAR-3 ovarian
# MDA-MB-435 = test system: MDA-MB-435
# SF-539 CNS = test system: SF-539 CNS
# K-562 leukemia = test system: K-562 leukemia
# SF-268 CNS = test system: SF-268 CNS
# IGROV1 ovarian = test system: IGROV1 ovarian
# SR leukemia = test system: SR leukemia
# EKVX NSCLC = test system: EKVX NSCLC
# 786-0 renal = test system: 786-0 renal
# MALME-3M melanoma = test system: MALME-3M melanoma
# HL-60(TB) leukemia = test system: HL-60(TB) leukemia
# UACC-257 melanoma = test system: UACC-257 melanoma
# A498 renal = test system: A498 renal
# MDA-MB-231 breast = test system: MDA-MB-231 breast
# T-47D breast = test system: T-47D breast
# KM12 colon = test system: KM12 colon
# RXF 393 renal = test system: RXF 393 renal
# CAKI-1 renal = test system: CAKI-1 renal
# RPMI-8226 leukemia = test system: RPMI-8226 leukemia
# PC-3 prostate = test system: PC-3 prostate
# UO-31 renal = test system: UO-31 renal
# BT-549 breast = test system: BT-549 breast
# COLO 205 colon = test system: COLO 205 colon
# LOX IMVI melanoma = test system: LOX IMVI melanoma
# HCC-2998 colon = test system: HCC-2998 colon
# SK-MEL-5 melanoma = test system: SK-MEL-5 melanoma
# NCI-H23 lung = test system: NCI-H23 lung
# HS 578T breast = test system: HS 578T breast
# MOLT-4 leukemia = test system: MOLT-4 leukemia
# SK-OV-3 ovarian = test system: SK-OV-3 ovarian
# HCT-116 colon = test system: HCT-116 colon
# SNB-75 CNS = test system: SNB-75 CNS
# DU-145 prostate = test system: DU-145 prostate
# SNB-19 CNS = test system: SNB-19 CNS
# U251 CNS = test system: U251 CNS
# OVCAR-8 ovarian = test system: OVCAR-8 ovarian
# A549 NSCLC = test system: A549 NSCLC
# HOP-62 NSCLC = test system: HOP-62 NSCLC
# SF-295 CNS = test system: SF-295 CNS
# TK-10 renal = test system: TK-10 renal
# SK-MEL-28 melanoma = test system: SK-MEL-28 melanoma
# SW-620 colon = test system: SW-620 colon
# NCI-H522 lung = test system: NCI-H522 lung
# UACC-62 melanoma = test system: UACC-62 melanoma
# NCI-H226 lung = test system: NCI-H226 lung
# HCT-15 colon = test system: HCT-15 colon
# NCI-H460 lung = test system: NCI-H460 lung
# ACHN renal = test system: ACHN renal
# HT29 colon = test system: HT29 colon
# M14 melanoma = test system: M14 melanoma
# SK-MEL-2 melanoma = test system: SK-MEL-2 melanoma
# OVCAR-5 ovarian = test system: OVCAR-5 ovarian
# SN12C renal = test system: SN12C renal
# NCI/ADR-RES ovarian = test system: NCI/ADR-RES ovarian
smiles,measurement,setting,value
C#Cc1nc(C2=C(C)C(O)/C(=N/O)C2)cs1 (stereo unspecified),GI50,OVCAR-4 ovarian,57.2 µM
same,TGI,OVCAR-4 ovarian,> 100 µM
same,GI50,CCRF-CEM leukemia,2.21 µM
same,TGI,CCRF-CEM leukemia,5.3 µM
same,GI50,MCF7 breast,39 µM
same,TGI,MCF7 breast,> 100 µM
same,GI50,HOP-92 NSCLC,18.1 µM
same,TGI,HOP-92 NSCLC,34.1 µM
same,GI50,OVCAR-3 ovarian,> 100 µM
same,TGI,OVCAR-3 ovarian,> 100 µM
same,GI50,MDA-MB-435,> 100 µM
same,TGI,MDA-MB-435,> 100 µM
same,GI50,SF-539 CNS,11.5 µM
same,TGI,SF-539 CNS,23.6 µM
same,GI50,K-562 leukemia,36.7 µM
same,TGI,K-562 leukemia,> 100 µM
same,GI50,SF-268 CNS,40.7 µM
same,TGI,SF-268 CNS,> 100 µM
same,GI50,IGROV1 ovarian,2.97 µM
same,TGI,IGROV1 ovarian,12.1 µM
same,GI50,SR leukemia,1.91 µM
same,TGI,SR leukemia,5.31 µM
same,GI50,EKVX NSCLC,> 100 µM
same,TGI,EKVX NSCLC,> 100 µM
same,GI50,786-0 renal,3.84 µM
same,TGI,786-0 renal,14 µM
same,GI50,MALME-3M melanoma,18.4 µM
same,TGI,MALME-3M melanoma,49.6 µM
same,GI50,HL-60(TB) leukemia,11.9 µM
same,TGI,HL-60(TB) leukemia,29 µM
same,GI50,UACC-257 melanoma,57.4 µM
same,TGI,UACC-257 melanoma,> 100 µM
same,GI50,A498 renal,24.1 µM
same,TGI,A498 renal,50.3 µM
same,GI50,MDA-MB-231 breast,60.1 µM
same,TGI,MDA-MB-231 breast,> 100 µM
same,GI50,T-47D breast,66.8 µM
same,TGI,T-47D breast,> 100 µM
same,GI50,KM12 colon,> 100 µM
same,TGI,KM12 colon,> 100 µM
same,GI50,RXF 393 renal,19.4 µM
same,TGI,RXF 393 renal,62.6 µM
same,GI50,CAKI-1 renal,48.3 µM
same,TGI,CAKI-1 renal,> 100 µM
same,GI50,RPMI-8226 leukemia,5.19 µM
same,TGI,RPMI-8226 leukemia,21.8 µM
same,GI50,PC-3 prostate,39.1 µM
same,TGI,PC-3 prostate,> 100 µM
same,GI50,UO-31 renal,1.61 µM
same,TGI,UO-31 renal,2.98 µM
same,GI50,BT-549 breast,19.8 µM
same,TGI,BT-549 breast,75.5 µM
same,GI50,COLO 205 colon,> 100 µM
same,TGI,COLO 205 colon,> 100 µM
same,GI50,LOX IMVI melanoma,1.52 µM
same,TGI,LOX IMVI melanoma,2.95 µM
same,GI50,HCC-2998 colon,> 100 µM
same,TGI,HCC-2998 colon,> 100 µM
same,GI50,SK-MEL-5 melanoma,54.6 µM
same,TGI,SK-MEL-5 melanoma,> 100 µM
same,GI50,NCI-H23 lung,7.4 µM
same,TGI,NCI-H23 lung,> 100 µM
same,GI50,HS 578T breast,> 100 µM
same,TGI,HS 578T breast,> 100 µM
same,GI50,MOLT-4 leukemia,15.1 µM
same,TGI,MOLT-4 leukemia,40.9 µM
same,GI50,SK-OV-3 ovarian,18.8 µM
same,TGI,SK-OV-3 ovarian,39.3 µM
same,GI50,HCT-116 colon,42.2 µM
same,TGI,HCT-116 colon,> 100 µM
same,GI50,SNB-75 CNS,> 100 µM
same,TGI,SNB-75 CNS,> 100 µM
same,GI50,DU-145 prostate,49.2 µM
same,TGI,DU-145 prostate,> 100 µM
same,GI50,SNB-19 CNS,> 100 µM
same,TGI,SNB-19 CNS,> 100 µM
same,GI50,U251 CNS,79.5 µM
same,TGI,U251 CNS,> 100 µM
same,GI50,OVCAR-8 ovarian,55.5 µM
same,TGI,OVCAR-8 ovarian,> 100 µM
same,GI50,A549 NSCLC,35.3 µM
same,TGI,A549 NSCLC,> 100 µM
same,GI50,HOP-62 NSCLC,94.9 µM
same,TGI,HOP-62 NSCLC,> 100 µM
same,GI50,SF-295 CNS,12.5 µM
same,TGI,SF-295 CNS,28.5 µM
same,GI50,TK-10 renal,> 100 µM
same,TGI,TK-10 renal,> 100 µM
same,GI50,SK-MEL-28 melanoma,87.8 µM
same,TGI,SK-MEL-28 melanoma,> 100 µM
same,GI50,SW-620 colon,79.3 µM
same,TGI,SW-620 colon,> 100 µM
same,GI50,NCI-H522 lung,14.1 µM
same,TGI,NCI-H522 lung,29.1 µM
same,GI50,UACC-62 melanoma,> 100 µM
same,TGI,UACC-62 melanoma,> 100 µM
same,GI50,NCI-H226 lung,> 100 µM
same,TGI,NCI-H226 lung,> 100 µM
same,GI50,HCT-15 colon,49 µM
same,TGI,HCT-15 colon,> 100 µM
same,GI50,NCI-H460 lung,> 100 µM
same,TGI,NCI-H460 lung,> 100 µM
same,GI50,ACHN renal,3.61 µM
same,TGI,ACHN renal,> 100 µM
same,GI50,HT29 colon,25.7 µM
same,TGI,HT29 colon,68.1 µM
same,GI50,M14 melanoma,> 100 µM
same,TGI,M14 melanoma,> 100 µM
same,GI50,SK-MEL-2 melanoma,> 100 µM
same,TGI,SK-MEL-2 melanoma,> 100 µM
same,GI50,OVCAR-5 ovarian,63.6 µM
same,TGI,OVCAR-5 ovarian,> 100 µM
same,GI50,SN12C renal,35 µM
same,TGI,SN12C renal,> 100 µM
same,GI50,NCI/ADR-RES ovarian,81.5 µM
same,TGI,NCI/ADR-RES ovarian,> 100 µM
